Measured values as given in ChEMBL document CHEMBL5518246, “Discovery of Small Molecule Interleukin 17A Inhibitors with Novel Binding Mode and Stoichiometry: Optimization of DNA-Encoded Chemical Library Hits to In Vivo Active Compounds” (J Med Chem, 2024).
Converted amounts (≈) assume the structure as drawn.

What was measured:
[1] = Metabolic stability in human liver microsomes assessed as unbound intrinsic clearance at 0.5 uM measured after 4 hrs; assay type: ADME, Microsome
[2] = Thermodynamic solubility of the compound at pH 7.4 measured after 48 hrs by UHPLC analysis; assay type: physicochemical; settings: buffer, read-out: Therm_solubility

CL free [1] [mL/min/kg] | solubility thermodynamic at 48 h [2] [µM] | Structure (SMILES)
200 | – | C[C@H](NC(=O)[C@H](CCc1ccccc1)NC(=O)c1cc(Cl)c(Cl)[nH]1)c1cn2nccnc2n1
145 | – | CNC(=O)[C@@H](NC(=O)c1cc(Cl)c(Cl)[nH]1)C1Cc2ccccc2C1
60 | – | O=C(N[C@@H](CCc1ccccc1)C(=O)NC[C@@H]1COCCO1)c1cc(Cl)c(Cl)[nH]1
183 | – | C[C@H](NC(=O)[C@]1(NC(=O)c2cc(Cl)c(Cl)[nH]2)CO[C@H](c2ccccc2)C1)c1ncc2c(n1)CN(CCC(F)(F)F)C2
217 | – | O=C(NC(CCc1ccccc1)C(=O)NCc1cn2cccnc2n1)c1cc(Cl)c(Cl)[nH]1 (racemic)
1100 | 27 (≈ 12.8 µg/mL) | O=C(N[C@@H](CCc1ccccc1)C(=O)NCc1ncc2c(n1)CCC2)c1cc(Cl)c(Cl)[nH]1
56.7 | – | CC(=O)N1CCO[C@H](CNC(=O)[C@H](CCc2ccccc2)NC(=O)c2cc(Cl)c(Cl)[nH]2)C1
667 | – | O=C(N[C@H](C(=O)NCc1cn2cccnc2n1)[C@H]1CCc2ccccc2C1)c1cc(Cl)c(Cl)[nH]1
98.3 | – | O=C(N[C@@H](CCc1ccccc1)C(=O)NC[C@H]1COCCO1)c1cc(Cl)c(Cl)[nH]1
71.7 | 73 (≈ 33.8 µg/mL) | O=C(N[C@@H](CCc1ccccc1)C(=O)NCc1ncc(CO)cn1)c1cc(Cl)c(Cl)[nH]1
< 41.7 | 532 (≈ 342 µg/mL) | COc1cccc([C@@H]2C[C@](NC(=O)c3cc(Cl)c(Cl)[nH]3)(C(=O)N[C@@H](C)c3ncc4c(n3)CN(C3CCN(C)CC3)C4)CO2)c1
< 26.7 | 600 (≈ 351 µg/mL) | C[C@H](NC(=O)[C@]1(NC(=O)c2cc(Cl)c(Cl)[nH]2)CO[C@H](c2ccccc2)C1)c1ncc2c(n1)CN(C1CN(C)C1)C2
85 | – | CNC(=O)[C@@H]1C[C@@H](c2ccccc2)CN1C(=O)c1cc(Cl)c(Cl)[nH]1
102 | 31 (≈ 16 µg/mL) | C[C@H](NC(=O)[C@]1(NC(=O)c2cc(Cl)c(Cl)[nH]2)CO[C@H](c2ccccc2)C1)c1cc2c(nn1)COC2
533 | – | O=C(N[C@H](C(=O)NCc1cn2cccnc2n1)[C@H]1C[C@@H]1c1ccccc1)c1cc(Cl)c(Cl)[nH]1
1030 | – | O=C(NC(CCc1ccccc1)C(=O)NCc1cnc(N2CCOCC2)nc1)c1cc(Cl)c(Cl)[nH]1 (racemic)
58.3 | – | O=C(N[C@@H](CCc1ccccc1)C(=O)NC1(c2cn3cccnc3n2)CC1)c1cc(Cl)c(Cl)[nH]1
1300 | 230 (≈ 99.2 µg/mL) | O=C(N[C@@H](CCc1ccccc1)C(=O)NCc1cccnc1)c1cc(Cl)c(Cl)[nH]1
107 | – | COC[C@H](NC(=O)[C@H](CCc1ccccc1)NC(=O)c1cc(Cl)c(Cl)[nH]1)c1cn2cccnc2n1
< 33 | – | CNC(=O)[C@H](CC(C)(C)C)NC(=O)c1cc(Cl)c(Cl)[nH]1
135 | – | O=C(N[C@@H](CCc1ccccc1)C(=O)NCC1(CO)CCOCC1)c1cc(Cl)c(Cl)[nH]1
63.3 | – | O=C(N[C@@]1(C(=O)NCc2cn3cccnc3n2)CO[C@H](c2ccccc2)C1)c1cc(Cl)c(Cl)[nH]1

CL free [1] [mL/min/kg] | solubility thermodynamic at 48 h [2] [µM] | Structure (SMILES)
160 | – | O=C(N[C@@H](CCc1ccccc1)C(=O)NCCC1(O)CCOCC1)c1cc(Cl)c(Cl)[nH]1
90 | – | CNC(=O)[C@@H](NC(=O)c1cc(Cl)c(Cl)[nH]1)C1CCCCC1
43.3 | – | O=C(N[C@]1(C(=O)NCc2cn3cccnc3n2)CO[C@H](c2ccccc2)C1)c1cc(Cl)c(Cl)[nH]1
183 | 60 (≈ 31 µg/mL) | C[C@H](NC(=O)[C@]1(NC(=O)c2cc(Cl)c(Cl)[nH]2)CO[C@H](c2ccccc2)C1)c1cnc2c(n1)COC2
125 | – | CC[C@H](NC(=O)[C@H](CCc1ccccc1)NC(=O)c1cc(Cl)c(Cl)[nH]1)c1cn2cccnc2n1
< 28.3 | 67 (≈ 33.8 µg/mL) | C[C@H](NC(=O)[C@]1(NC(=O)c2cc(Cl)c(Cl)[nH]2)CO[C@H](c2ccccc2)C1)c1ncc(CO)cn1
200 | – | C[C@H](NC(=O)[C@H](CCc1ccccc1)NC(=O)c1cc(Cl)c(Cl)[nH]1)c1cn2cccnc2n1
333 | – | C[C@H](NC(=O)[C@H](CCc1ccccc1)NC(=O)c1cc(Cl)c(Cl)[nH]1)c1cn2ccoc2n1
78.3 | 0.82 (≈ 0.425 µg/mL) | COCc1cnc([C@H](C)NC(=O)[C@]2(NC(=O)c3cc(Cl)c(Cl)[nH]3)CO[C@H](c3ccccc3)C2)nc1
217 | 719 (≈ 371 µg/mL) | C[C@H](NC(=O)[C@]1(NC(=O)c2cc(Cl)c(Cl)[nH]2)CO[C@H](c2ccccc2)C1)c1ncc2c(n1)CNC2
1680 | – | C[C@H](NC(=O)[C@H](CCc1ccccc1)NC(=O)c1cc(Cl)c(Cl)[nH]1)c1cn2ccsc2n1
1050 | – | O=C(N[C@H](C(=O)NCc1cn2cccnc2n1)[C@@H]1CCc2ccccc2C1)c1cc(Cl)c(Cl)[nH]1
55 | 7.2 (≈ 4.17 µg/mL) | C[C@H](NC(=O)[C@]1(NC(=O)c2cc(Cl)c(Cl)[nH]2)CO[C@H](c2ccccc2)C1)c1ncc2c(n1)CN(CC(F)F)C2
< 28.3 | 280 (≈ 160 µg/mL) | C[C@H](NC(=O)[C@]1(NC(=O)c2cc(Cl)c(Cl)[nH]2)CO[C@H](c2ccccc2)C1)c1ncc2c(n1)CN(C1COC1)C2
200 | 1.7 (≈ 0.759 µg/mL) | C[C@H](NC(=O)[C@H](CCc1ccccc1)NC(=O)c1cc(Cl)c(Cl)[nH]1)c1ncccn1
115 | – | O=C(N[C@@]1(C(=O)NCc2cn3cccnc3n2)CO[C@@H](c2ccccc2)C1)c1cc(Cl)c(Cl)[nH]1
350 | – | CC(C)(NC(=O)[C@H](CCc1ccccc1)NC(=O)c1cc(Cl)c(Cl)[nH]1)c1cn2cccnc2n1
35000 | – | O=C(CN1C(=O)[C@@H](NC(=O)[C@@H](NC(=O)c2cc(Cl)c(Cl)[nH]2)C2CCCCC2)CSc2ccccc21)Nc1ccccc1
1120 | – | O=C(NC(CCc1ccccc1)C(=O)NCc1cn2ccsc2n1)c1cc(Cl)c(Cl)[nH]1 (racemic)
1530 | 145 (≈ 62.4 µg/mL) | O=C(N[C@@H](CCc1ccccc1)C(=O)NCc1ccccc1)c1cc(Cl)c(Cl)[nH]1
817 | – | O=C(NC(CCc1ccccc1)C(=O)NCc1cccnc1N1CCOCC1)c1cc(Cl)c(Cl)[nH]1 (racemic)
< 38.3 | 654 (≈ 417 µg/mL) | C[C@H](NC(=O)[C@]1(NC(=O)c2cc(Cl)c(Cl)[nH]2)CO[C@H](c2cccc(C#N)c2)C1)c1ncc2c(n1)CN(C1CCN(C)CC1)C2

CL free [1] [mL/min/kg] | solubility thermodynamic at 48 h [2] [µM] | Structure (SMILES)
120 | 61 (≈ 33.8 µg/mL) | C[C@H](NC(=O)[C@]1(NC(=O)c2cc(Cl)c(Cl)[nH]2)CO[C@H](c2ccccc2)C1)c1ncc2c(n1)CN(CC#N)C2
120 | – | O=C(N[C@H](C(=O)NCc1cn2cccnc2n1)C1Cc2ccccc2C1)c1cc(Cl)c(Cl)[nH]1
200 | 5.3 (≈ 3.17 µg/mL) | C[C@H](NC(=O)[C@]1(NC(=O)c2cc(Cl)c(Cl)[nH]2)CO[C@H](c2ccccc2)C1)c1ncc2c(n1)CN(CC(F)(F)F)C2
938 | – | O=C(N[C@@H](CCc1ccccc1)C(=O)N[C@@H](CO)c1cn2cccnc2n1)c1cc(Cl)c(Cl)[nH]1
267 | – | C[C@@H](NC(=O)[C@H](CCc1ccccc1)NC(=O)c1cc(Cl)c(Cl)[nH]1)c1cn2cccnc2n1
< 35 | – | O=C(N[C@]1(C(=O)NCc2cn3cccnc3n2)CO[C@@H](c2ccccc2)C1)c1cc(Cl)c(Cl)[nH]1
217 | – | CN1CCN(CCNC(=O)[C@H](CCc2ccccc2)NC(=O)c2cc(Cl)c(Cl)[nH]2)CC1
400 | > 1000 | C[C@H](NC(=O)[C@]1(NC(=O)c2cc(Cl)c(Cl)[nH]2)CO[C@H](c2ccccc2)C1)c1ncc2c(n1)CN([C@@H]1CCN(C)C1)C2
113 | – | O=C(N[C@@H](CCc1ccccc1)C(=O)NCC1(O)CCOCC1)c1cc(Cl)c(Cl)[nH]1
6000 | – | CN1C(=O)[C@@H](NC(=O)[C@@H](NC(=O)c2cc(Cl)c(Cl)[nH]2)C2CCCCC2)COc2ccccc21
140 | 1.8 (≈ 0.877 µg/mL) | CN1Cc2cnc(CNC(=O)[C@H](CCc3ccccc3)NC(=O)c3cc(Cl)c(Cl)[nH]3)nc2C1
333 | 3.8 (≈ 1.95 µg/mL) | C[C@H](NC(=O)[C@]1(NC(=O)c2cc(Cl)c(Cl)[nH]2)CO[C@H](c2ccccc2)C1)c1ncc2c(n1)CCC2
233 | – | O=C(N[C@@H](CCc1ccccc1)C(=O)NCc1cn2cccnc2n1)c1cc(Cl)c(Cl)[nH]1
115 | – | O=C(NC1(C(=O)NCc2cn3cccnc3n2)Cc2ccccc2C1)c1cc(Cl)c(Cl)[nH]1
500 | – | C[C@H](NC(=O)[C@H](CCc1ccccc1)NC(=O)c1cc(Cl)c(Cl)[nH]1)c1nc2cnccc2s1
< 45 | > 1000 | C[C@H](NC(=O)[C@]1(NC(=O)c2cc(Cl)c(Cl)[nH]2)CO[C@H](c2ccccc2)C1)c1ncc2c(n1)CN([C@H]1CCN(C)C1)C2
< 40 | – | CNC(=O)[C@H](CCc1ccccc1)NC(=O)c1cc(Cl)c(Cl)[nH]1
333 | 2.5 (≈ 1.29 µg/mL) | O=C(N[C@@H](CCc1ccccc1)C(=O)NCc1ncc(C2CCOCC2)cn1)c1cc(Cl)c(Cl)[nH]1
167 | 5.7 (≈ 2.72 µg/mL) | COCc1cnc(CNC(=O)[C@H](CCc2ccccc2)NC(=O)c2cc(Cl)c(Cl)[nH]2)nc1
70 | – | CC(=O)N1CCO[C@@H](CNC(=O)[C@H](CCc2ccccc2)NC(=O)c2cc(Cl)c(Cl)[nH]2)C1
35 | – | CNC(=O)[C@H](CCc1ccccc1)NC(=O)c1cc(C)c[nH]1
217 | – | O=C(N[C@H](C(=O)NCc1cn2cccnc2n1)[C@@H]1C[C@H]1c1ccccc1)c1cc(Cl)c(Cl)[nH]1
